Measurements reported in publication PMC3789393, “Purification and Characterization of Phenylalanine Ammonia Lyase from Trichosporon cutaneum” (Enzyme Research, 2013).

Tested on: T1, Trichosporon cutaneum phenylalanine ammonia lyase (TcPAL)
T1 construct: gene PAL; extra bands at 67 and 31 kDa; 79 kDa monomer; PAL typically homotetramer
Experiment: continuous spectrophotometric assay of trans-cinnamic acid at […] nm
Format: biochemical, Cutaneotrichosporon cutaneum
Details: 10 mM Tris-HCl pH 8.0, 30 °C; trial 1 of 3 (the trial quoted in abstract)

## N[C@@H](Cc1ccccc1)C(=O)O [Phe]
  Km: 5 ± 1.1 mM
